The structures appear in SMILES notation.

The results in this text go back to US20260216144A1, “TARGETING MB2 OF THE MYC ONCOGENE AND ITS INTERACTION WITH TRRAP IN CANCER” (priority 2019, published 2026).

The target of experiment [1] is T1, endogenous MYC:TRRAP complex (Homo sapiens, UniProt P01106+Q9Y4A5).
T1 construct: immunoprecipitation experiments using endogenous full length MYC and TRRAP
Nature of the experiment: co-IP of the endogenous MYC:TRRAP complex from HeLa cells incubated with compounds. The experiment is classed as cell-based. As to conditions: for inhibition of MYC:TRRAP complex formation: luminescence assay and co-IP assay, compared to DMSO vehicle control, FIG. 24A. The protocol: (§1) FIGS. 23A-23B show the results of co-IP assay experiments comparing the top 17 hits in immunoprecipitation experiments using endogenous full length MYC and TRRAP. In these experiments immunocomplexes were immunoprecipitated with anti-MYC beads in the presence of 25 μM of each of the 17 top compounds. Experiments were carried out in cells (compounds were added to the media of cells) (FIG. 23B) or in vitro (compounds were added directly to the purified complex on pre-washed beads) (FIG. 23A). Immunoprecipitation of TRRAP was normalized to the immunoprecipitation of MYC.
The indicated TRRAP constructs were cloned into a CMV-driven plasmid containing an N-terminal FLAG tag as previously described (23). Full-length wild-type (WT) MYC and MYC ΔMB2 (A129-145), and the indicated MYC constructs were cloned into the same CMV-driven plasmid but containing a Glu-Glu (PYO) tag instead. HEK293T cells were co-transfected with equal amounts of each plasmid using LipoD293™ In vitro DNA Transfection Reagent per protocol (SignaGen). Cells were plated subconfluently 16-20 hours prior to transfection. After 24 hours, cells were lysed in F-buffer (10 mM TRIS pH 7.5, 50 mM NaCl, 30 mM sodium pyrophosphate, […], 10% glycerol, 1% Triton-X, 50 mM NaF) supplemented with 1 mM PMSF, 10 μM Leupeptin, 10 μM Pepstatin-A, and 10 μg/mL Aprotinin for immunoprecipitations and co-immunoprecipitations. Immunoprecipitations were performed using anti-FLAG (Sigma Aldrich), anti-PYO (Covance), or anti-MYC (C33 Santa Cruz Biotechnology) agarose preconjugated beads. Co-immunoprecipitation was analyzed by western blots with the following antibodies: MYC (sc-764 Santa Cruz Biotechnology), TRRAP (A301-132A Bethel Laboratories), FLAG (F7425 Sigma Aldrich), and PYO (Covance).
Co-IP experiments of the endogenous MYC:TRRAP complex were carried out to validate the results from the MYC:TRRAP in-cell luminescence complementation screen performed. HeLa cells were again subjected to the effects of incubation with each of the 17 compounds from FIG. 16 for 2 h before analysis. FIG. 19, FIG. 20, and FIG. 21 present the effects of these compounds on the endogenous MYC:TRRAP and MYC:MAX complexes. Like before, all compounds except for 7 and 11 had no effect on the levels of MYC or TRRAP. […] Incubation with some of the compounds that scored positive by the in-cell luminescence complementation screen had the predicted effect on the endogenous MYC:TRRAP complex. This validates the preliminary compound screen and presents the completion of a major milestone in the effort to therapeutically target MYC in cancer.

Experiment [2] concerns the target MYC:TRRAP interaction (Homo sapiens, UniProt P01106+Q9Y4A5). Nature of the experiment: MYC:TRRAP in-cell luminescence complementation assay (NanoBiT; SmB-MYC 1-190 and TRRAP 2033-2283-LgB in HeLa cells). The experiment is classed as cell-based. The gist of the method: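 HeLa cells transfected with SmB-MYC 1-190, TRRAP 2033-2283-LgB and EGFP reporter (6.7:60:33.3 ng plasmid per well); two days later treated 2 h with compounds at 25 μM. NanoBiT luminescence normalized to EGFP fluorescence; hits retested at 10 μM and counter-screened on LgB/SmB alone.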

The target in experiment [3] is T2, MYC:TRRAP complexes (Homo sapiens, UniProt P01106+Q9Y4A5).
T2 construct: immunoprecipitation experiments using endogenous full length MYC and TRRAP
T2 sequence (P01106 16-454): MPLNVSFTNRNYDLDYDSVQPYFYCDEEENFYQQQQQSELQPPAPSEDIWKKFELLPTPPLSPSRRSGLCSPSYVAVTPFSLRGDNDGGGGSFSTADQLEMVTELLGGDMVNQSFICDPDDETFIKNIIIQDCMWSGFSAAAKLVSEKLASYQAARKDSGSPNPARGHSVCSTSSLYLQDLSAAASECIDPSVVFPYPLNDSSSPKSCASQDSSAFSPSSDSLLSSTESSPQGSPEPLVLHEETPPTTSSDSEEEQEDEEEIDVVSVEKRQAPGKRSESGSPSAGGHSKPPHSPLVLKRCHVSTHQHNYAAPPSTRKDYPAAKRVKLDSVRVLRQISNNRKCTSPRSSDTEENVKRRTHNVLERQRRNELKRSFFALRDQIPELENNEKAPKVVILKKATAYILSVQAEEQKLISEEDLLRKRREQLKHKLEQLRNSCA
T2 sequence (Q9Y4A5 1-3830 isoform Q9Y4A5-2): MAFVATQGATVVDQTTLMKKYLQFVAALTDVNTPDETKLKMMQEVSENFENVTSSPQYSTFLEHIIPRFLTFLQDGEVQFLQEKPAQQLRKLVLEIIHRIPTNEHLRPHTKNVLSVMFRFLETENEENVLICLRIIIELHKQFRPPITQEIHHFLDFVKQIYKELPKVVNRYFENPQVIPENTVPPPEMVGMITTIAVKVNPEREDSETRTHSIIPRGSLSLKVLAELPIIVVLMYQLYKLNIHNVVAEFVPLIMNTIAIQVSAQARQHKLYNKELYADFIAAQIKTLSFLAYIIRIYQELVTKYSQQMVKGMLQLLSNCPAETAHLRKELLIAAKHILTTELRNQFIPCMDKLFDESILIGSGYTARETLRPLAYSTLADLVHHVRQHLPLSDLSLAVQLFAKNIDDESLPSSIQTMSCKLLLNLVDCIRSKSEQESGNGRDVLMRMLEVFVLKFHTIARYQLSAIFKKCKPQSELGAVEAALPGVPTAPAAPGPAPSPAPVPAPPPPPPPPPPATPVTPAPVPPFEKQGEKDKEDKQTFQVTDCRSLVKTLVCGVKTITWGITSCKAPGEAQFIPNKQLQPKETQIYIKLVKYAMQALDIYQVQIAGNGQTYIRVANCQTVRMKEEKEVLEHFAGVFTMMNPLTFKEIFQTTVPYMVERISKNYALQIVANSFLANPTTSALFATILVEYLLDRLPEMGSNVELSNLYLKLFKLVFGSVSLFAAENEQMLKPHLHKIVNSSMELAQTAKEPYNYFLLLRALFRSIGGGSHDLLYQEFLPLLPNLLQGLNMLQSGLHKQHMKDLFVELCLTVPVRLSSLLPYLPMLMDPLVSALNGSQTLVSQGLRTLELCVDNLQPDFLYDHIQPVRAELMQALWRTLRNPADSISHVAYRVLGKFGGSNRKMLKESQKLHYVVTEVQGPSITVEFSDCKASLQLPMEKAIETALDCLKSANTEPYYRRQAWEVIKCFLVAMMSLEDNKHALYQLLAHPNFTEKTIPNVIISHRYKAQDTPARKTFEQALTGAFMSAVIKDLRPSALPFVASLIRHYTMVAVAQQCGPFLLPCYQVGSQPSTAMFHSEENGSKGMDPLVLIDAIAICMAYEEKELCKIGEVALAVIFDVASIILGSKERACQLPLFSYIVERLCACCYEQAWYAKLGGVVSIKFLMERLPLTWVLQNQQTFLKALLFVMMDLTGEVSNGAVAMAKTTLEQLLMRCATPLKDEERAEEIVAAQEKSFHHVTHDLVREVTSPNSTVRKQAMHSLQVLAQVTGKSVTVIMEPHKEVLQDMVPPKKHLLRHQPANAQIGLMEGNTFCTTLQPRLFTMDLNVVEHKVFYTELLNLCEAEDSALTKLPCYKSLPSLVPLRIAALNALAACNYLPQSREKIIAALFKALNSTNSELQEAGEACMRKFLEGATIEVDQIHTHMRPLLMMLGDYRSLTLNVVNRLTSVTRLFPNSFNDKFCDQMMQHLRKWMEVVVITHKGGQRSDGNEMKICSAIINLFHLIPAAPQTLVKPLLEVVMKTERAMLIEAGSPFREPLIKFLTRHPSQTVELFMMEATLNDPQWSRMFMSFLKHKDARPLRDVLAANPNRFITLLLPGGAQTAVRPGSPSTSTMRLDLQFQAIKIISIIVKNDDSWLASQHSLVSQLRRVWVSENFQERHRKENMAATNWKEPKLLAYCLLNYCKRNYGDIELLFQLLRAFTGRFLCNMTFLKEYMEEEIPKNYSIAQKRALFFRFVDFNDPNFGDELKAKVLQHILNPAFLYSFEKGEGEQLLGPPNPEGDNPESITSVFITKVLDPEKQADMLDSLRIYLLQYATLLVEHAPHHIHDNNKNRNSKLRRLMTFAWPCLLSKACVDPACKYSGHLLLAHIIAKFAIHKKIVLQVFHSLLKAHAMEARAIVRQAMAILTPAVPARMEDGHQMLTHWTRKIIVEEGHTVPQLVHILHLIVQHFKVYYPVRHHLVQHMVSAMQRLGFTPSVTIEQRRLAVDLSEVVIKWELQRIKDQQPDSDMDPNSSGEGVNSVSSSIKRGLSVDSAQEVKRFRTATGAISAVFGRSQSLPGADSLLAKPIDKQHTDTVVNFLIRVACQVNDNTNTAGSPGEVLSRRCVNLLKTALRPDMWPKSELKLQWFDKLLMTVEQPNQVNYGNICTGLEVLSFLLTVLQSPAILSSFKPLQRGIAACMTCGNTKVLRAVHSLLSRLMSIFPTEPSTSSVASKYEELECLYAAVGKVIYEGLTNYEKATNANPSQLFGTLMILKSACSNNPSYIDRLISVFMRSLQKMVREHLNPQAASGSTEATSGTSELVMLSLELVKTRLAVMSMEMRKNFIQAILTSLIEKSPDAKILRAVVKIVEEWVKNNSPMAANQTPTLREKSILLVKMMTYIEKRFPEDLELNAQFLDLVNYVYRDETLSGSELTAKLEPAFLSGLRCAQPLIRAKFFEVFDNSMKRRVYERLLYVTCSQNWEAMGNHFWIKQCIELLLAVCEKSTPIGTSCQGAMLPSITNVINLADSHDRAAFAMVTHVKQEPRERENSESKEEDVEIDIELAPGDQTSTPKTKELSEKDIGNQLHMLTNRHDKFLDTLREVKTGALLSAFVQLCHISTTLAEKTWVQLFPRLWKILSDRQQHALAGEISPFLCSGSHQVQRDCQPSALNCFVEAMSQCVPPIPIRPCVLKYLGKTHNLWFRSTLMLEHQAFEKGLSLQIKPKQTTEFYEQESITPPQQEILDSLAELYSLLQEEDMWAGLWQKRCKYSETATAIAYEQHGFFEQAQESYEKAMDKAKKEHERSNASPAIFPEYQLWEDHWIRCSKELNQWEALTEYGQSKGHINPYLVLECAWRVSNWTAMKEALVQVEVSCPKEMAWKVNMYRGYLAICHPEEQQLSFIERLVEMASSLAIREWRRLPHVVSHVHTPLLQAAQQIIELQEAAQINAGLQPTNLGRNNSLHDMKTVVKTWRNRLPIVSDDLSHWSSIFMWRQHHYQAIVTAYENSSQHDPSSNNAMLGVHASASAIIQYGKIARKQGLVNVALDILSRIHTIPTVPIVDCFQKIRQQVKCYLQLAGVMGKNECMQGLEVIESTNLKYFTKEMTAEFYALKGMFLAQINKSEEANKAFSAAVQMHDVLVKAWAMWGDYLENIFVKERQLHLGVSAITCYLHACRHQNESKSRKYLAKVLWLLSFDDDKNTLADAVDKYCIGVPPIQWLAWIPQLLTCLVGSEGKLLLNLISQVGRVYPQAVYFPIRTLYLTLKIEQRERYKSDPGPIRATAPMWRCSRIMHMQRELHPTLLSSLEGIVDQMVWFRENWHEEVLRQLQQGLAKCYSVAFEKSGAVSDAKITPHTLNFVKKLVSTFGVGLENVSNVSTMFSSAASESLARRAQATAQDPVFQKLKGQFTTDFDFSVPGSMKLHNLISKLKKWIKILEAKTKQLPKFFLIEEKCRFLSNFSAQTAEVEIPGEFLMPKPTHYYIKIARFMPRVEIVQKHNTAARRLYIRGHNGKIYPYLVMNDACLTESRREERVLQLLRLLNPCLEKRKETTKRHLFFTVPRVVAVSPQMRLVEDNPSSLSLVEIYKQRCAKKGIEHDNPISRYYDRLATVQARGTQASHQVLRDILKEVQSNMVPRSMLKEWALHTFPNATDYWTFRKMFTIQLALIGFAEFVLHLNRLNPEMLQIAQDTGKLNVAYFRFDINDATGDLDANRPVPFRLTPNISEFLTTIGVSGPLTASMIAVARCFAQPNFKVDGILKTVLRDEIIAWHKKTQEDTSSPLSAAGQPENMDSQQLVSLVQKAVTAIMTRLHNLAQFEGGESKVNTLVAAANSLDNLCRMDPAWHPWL
Nature of the experiment: in vitro co-IP (compounds added directly to the purified MYC:TRRAP complex on pre-washed beads). Format: binding. As to conditions: in vitro by co-IP; normalized to protein levels; FIG. 26B; read-out: IC50 for the inhibition of MYC:TRRAP. The protocol:
as §1
This represents an ^~10-fold increase in activity from NSC657456.

[4] abbreviates: Table 2, compounds with >80% similarity to compound 10 (NSC657456), 10 uM.

T1 sequence (P01106 16-454): as the sequence (P01106 16-454) above
T1 sequence (Q9Y4A5 1-3830 isoform Q9Y4A5-2): as the sequence (Q9Y4A5 1-3830 isoform Q9Y4A5-2) above
MYC:TRRAP interaction, sequence (P01106 16-205): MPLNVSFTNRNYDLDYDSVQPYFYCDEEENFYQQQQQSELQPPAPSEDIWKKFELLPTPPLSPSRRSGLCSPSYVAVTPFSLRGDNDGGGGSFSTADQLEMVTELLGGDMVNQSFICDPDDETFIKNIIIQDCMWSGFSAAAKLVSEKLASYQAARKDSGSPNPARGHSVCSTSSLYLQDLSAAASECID
MYC:TRRAP interaction, sequence (Q9Y4A5 2051-2301): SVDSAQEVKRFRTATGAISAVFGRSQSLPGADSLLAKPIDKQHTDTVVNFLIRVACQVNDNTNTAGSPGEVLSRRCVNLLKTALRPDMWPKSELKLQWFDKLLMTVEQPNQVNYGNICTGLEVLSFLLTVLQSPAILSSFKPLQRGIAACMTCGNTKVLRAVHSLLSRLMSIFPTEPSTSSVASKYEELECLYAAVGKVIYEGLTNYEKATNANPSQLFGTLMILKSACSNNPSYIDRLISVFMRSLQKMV

Take `COc1cc(C=C2S/C(=N/Nc3nc(-c4ccc(Br)cc4)cs3)N=C2O)cc(OC)c1OC` (stereo in doubt) [Compound 10N, (2E,5Z)-2-[[4-(4-bromophenyl)-1,3-thiazol-2-yl] hydrazinylidene]-5-[(3,4,5-trimethoxy-phenyl)methylidene]-1,3-thiazolidin-4-one]: the “inhibition of the endogenous MYC:TRRAP interaction” value in experiment [1] (FIG. 24) was “do not inhibit the endogenous MYC:TRRAP interaction”. The “inhibition of MYC:TRRAP complex formation” value in experiment [1] is 20%. Besides, the “% Inhibition 10 uM” value in experiment [2] (setting [4]) is given as 88.1%.

Take `Oc1[nH]c2ccccc2c1/N=N/c1nc(-c2ccc(Br)cc2)cs1` [Compound 10, 3-[[4-(4-bromophenyl)-1,3-thiazol-2-yl]diazenyl]-1H-indol-2-ol]: in experiment [1] (25 μM, top 17 hits, in cells or in vitro, FIG. 23A-23B), the “inhibitory activity on immunoprecipitation of TRRAP normalized to MYC” value is “greatest inhibitory activity”. Moreover, the “inhibition of MYC:TRRAP complex formation” value in experiment [1] amounted to 70%. In addition, the “% Inhibition 10 uM” value in experiment [2] (Table 1, 46 primary hits at 10 uM, HeLa cells, triplicate measurements) was found to be 58.98%; in experiment [2] (setting [4]), 73.56%. Besides, the “inhibition of MYC:TRRAP binding” value in experiment [2] (most consistent inhibition in multiple assays) is reported as ~ 50%.

Regarding `Oc1[nH]c2ccccc2c1/N=N/c1nc(-c2ccccc2)cs1` [Compound 1024, 3-[(4-phenyl-1,3-thiazol-2-yl)diazenyl]-1H-indol-2-ol], the “concentration that inhibits MYC:TRRAP complex formation” value in experiment [2] (FIG. 25, 26) fell in the range of 3 to 5 µM. Besides, the “% Inhibition 10 uM” value in experiment [2] (setting [4]) was determined as 39.63%. For the same compound, the “increase in activity from NSC657456” value in experiment [2] (compared with NSC657456) was ~ 10 fold. The IC50 (in general, the concentration that gives 50% inhibition) in experiment [2] (in cells, in-cell luminescence complementation assay, normalized to MYC and TRRAP protein levels, FIG. 26A, read-out: IC50 for the inhibition of MYC:TRRAP) stood at 4.7 µM; in experiment [3] it was 3.7 µM.

On to `Cc1ccccc1/N=C(S)/N=N/c1c(O)[nH]c2ccccc12` [Compound 1034, 1-[(2-hydroxy-1H-indol-3-yl)imino]-3-(2-methylphenyl) thiourea], for which the “% Inhibition 10 uM” value in experiment [2] (setting [4]) is recorded as 111.9%.

`Cc1cccc(/N=C(S)/N=N/c2c(O)[nH]c3ccccc23)c1` [Compound 1035, 1-[(2-hydroxy-1H-indol-3-yl)imino]-3-(3-methylphenyl) thiourea]: the “% Inhibition 10 uM” value in experiment [2] (setting [4]) was found to be 82.12%.

Regarding `Cc1ccc(/N=C(S)/N=N/c2c(O)[nH]c3ccccc23)cc1` [Compound 1036], in experiment [2] (setting [4]), the “% Inhibition 10 uM” value came out at 86.98%.

As for `Oc1[nH]c2ccccc2c1/N=N/C1=NCCCCN1` [Compound 1037, 3-(4,5,6,7-tetrahydro-1H-1,3-diazepin-2-yldiazenyl)-1H-indol-2-ol; hydroiodide], the “% Inhibition 10 uM” value in experiment [2] (setting [4]) worked out at 85.49%.

Consider `O=C(Cc1ccccc1)/N=N/c1c(O)[nH]c2ccccc12` [Compound 1038, N-((2-hydroxy-1H-indol-3-yl)imino]-2-phenylacetamide], for which the “% Inhibition 10 uM” value in experiment [2] (setting [4]) was found to be 86.67%.

Consider `c1ccc2c(c1)=NOc1[nH]c3ccccc3c1N=2` [Compound 1039, 5H-indolo[2,3-c][2,1,5]ben-zoxadiazepine], for which the “% Inhibition 10 uM” value in experiment [2] (setting [4]) was 59.84%.
